Test [1] concerns HCT-116. Briefly: Induction of apoptosis in human HCT116 cells assessed as late apoptotic cells at 50 uM after 24 hrs by annexin V-FITC/propidium iodide staining-based flow cytometry (reference value: 2.71%). Type of test: functional. In general terms: Flow cytometry measures light scatter and fluorescence of single cells or particles in a stream.
The subject of test [2] is AGS. Briefly: Cell cycle arrest in human AGS cells assessed as accumulation at sub G1 phase at 150 uM after 24 hrs by propidium iodide staining-based flow cytometry. Type of test: functional.

Consider 1 molecule from ChEMBL document CHEMBL3108668, “Antitumor activity of jujuboside B and the underlying mechanism via induction of apoptosis and autophagy” (J Nat Prod, 2014).

The structures appear in SMILES notation.

Consider `CC(C)=C[C@H]1C[C@](C)(O)[C@@H]2[C@H]3CC[C@@H]4[C@@]5(C)CC[C@H](O[C@@H]6OC[C@H](O)[C@H](O[C@@H]7O[C@H](CO)[C@@H](O)[C@H](O)[C@H]7O[C@@H]7OC[C@@H](O)[C@H](O)[C@H]7O)[C@H]6O[C@@H]6O[C@@H](C)[C@H](O)[C@@H](O)[C@H]6O)C(C)(C)[C@@H]5CC[C@@]4(C)[C@@]34CO[C@@]2(C4)O1`, for which the Activity came out at 2.53% in test [1] and 21.73% in test [2].
